Where a name gives a salt, the structure may show the parent alone. Read-outs that look alike come from different tables or passages of the source.
Legend:
[1] = system: BN rats; test: Effect on the allergen stimulated mucus production of airways epithelial cells (PAS(+) cell count in lung sections); assay type: in vivo, Brown Norway (BN) rats; conditions: lungs 48 hours after challenge, Control 2.2 ± 0.9, Challenge 15.8 ± 2.8
Method: Sensitized BN rats were treated intratracheally with varying (0.01-1.0 mg/kg) dose of compound described in example 4, two hours before antigenic challenge, using a similar protocol described in Model 1. Lungs were collected 48 hours after challenge and were fixed in 8% phosphate buffered formaldehyde. Samples were then processed for histochemistry routinely. 5 μm thick sections were stained with periodic-acid-Schiff (PAS) reagents and were counterstained with haematoxylineosine. On the sections each epithelial cells of the airways were counted in the whole preparation at a magnification of 400×. The number of PAS(+) [mucus producing] epithelial cells was expressed as the ratio of the total number of epithelial cells.
As it is shown in Table 2, allergen challenge stimulates the mucus production of airways epithelial cells (control vs. challenge).

[2] = target: T1, IP-3 receptor (Rattus norvegicus, UniProt P29994); test: IP-3 receptor antagonistic effect: inhibition of IP3 binding to its receptor in rat cerebellum membrane preparations
T1 construct: determined using rat cerebellum membrane preparations; from tissue; host or cells: rat cerebellum (microsomal membrane preparation)
T1 sequence (P29994 whole entry): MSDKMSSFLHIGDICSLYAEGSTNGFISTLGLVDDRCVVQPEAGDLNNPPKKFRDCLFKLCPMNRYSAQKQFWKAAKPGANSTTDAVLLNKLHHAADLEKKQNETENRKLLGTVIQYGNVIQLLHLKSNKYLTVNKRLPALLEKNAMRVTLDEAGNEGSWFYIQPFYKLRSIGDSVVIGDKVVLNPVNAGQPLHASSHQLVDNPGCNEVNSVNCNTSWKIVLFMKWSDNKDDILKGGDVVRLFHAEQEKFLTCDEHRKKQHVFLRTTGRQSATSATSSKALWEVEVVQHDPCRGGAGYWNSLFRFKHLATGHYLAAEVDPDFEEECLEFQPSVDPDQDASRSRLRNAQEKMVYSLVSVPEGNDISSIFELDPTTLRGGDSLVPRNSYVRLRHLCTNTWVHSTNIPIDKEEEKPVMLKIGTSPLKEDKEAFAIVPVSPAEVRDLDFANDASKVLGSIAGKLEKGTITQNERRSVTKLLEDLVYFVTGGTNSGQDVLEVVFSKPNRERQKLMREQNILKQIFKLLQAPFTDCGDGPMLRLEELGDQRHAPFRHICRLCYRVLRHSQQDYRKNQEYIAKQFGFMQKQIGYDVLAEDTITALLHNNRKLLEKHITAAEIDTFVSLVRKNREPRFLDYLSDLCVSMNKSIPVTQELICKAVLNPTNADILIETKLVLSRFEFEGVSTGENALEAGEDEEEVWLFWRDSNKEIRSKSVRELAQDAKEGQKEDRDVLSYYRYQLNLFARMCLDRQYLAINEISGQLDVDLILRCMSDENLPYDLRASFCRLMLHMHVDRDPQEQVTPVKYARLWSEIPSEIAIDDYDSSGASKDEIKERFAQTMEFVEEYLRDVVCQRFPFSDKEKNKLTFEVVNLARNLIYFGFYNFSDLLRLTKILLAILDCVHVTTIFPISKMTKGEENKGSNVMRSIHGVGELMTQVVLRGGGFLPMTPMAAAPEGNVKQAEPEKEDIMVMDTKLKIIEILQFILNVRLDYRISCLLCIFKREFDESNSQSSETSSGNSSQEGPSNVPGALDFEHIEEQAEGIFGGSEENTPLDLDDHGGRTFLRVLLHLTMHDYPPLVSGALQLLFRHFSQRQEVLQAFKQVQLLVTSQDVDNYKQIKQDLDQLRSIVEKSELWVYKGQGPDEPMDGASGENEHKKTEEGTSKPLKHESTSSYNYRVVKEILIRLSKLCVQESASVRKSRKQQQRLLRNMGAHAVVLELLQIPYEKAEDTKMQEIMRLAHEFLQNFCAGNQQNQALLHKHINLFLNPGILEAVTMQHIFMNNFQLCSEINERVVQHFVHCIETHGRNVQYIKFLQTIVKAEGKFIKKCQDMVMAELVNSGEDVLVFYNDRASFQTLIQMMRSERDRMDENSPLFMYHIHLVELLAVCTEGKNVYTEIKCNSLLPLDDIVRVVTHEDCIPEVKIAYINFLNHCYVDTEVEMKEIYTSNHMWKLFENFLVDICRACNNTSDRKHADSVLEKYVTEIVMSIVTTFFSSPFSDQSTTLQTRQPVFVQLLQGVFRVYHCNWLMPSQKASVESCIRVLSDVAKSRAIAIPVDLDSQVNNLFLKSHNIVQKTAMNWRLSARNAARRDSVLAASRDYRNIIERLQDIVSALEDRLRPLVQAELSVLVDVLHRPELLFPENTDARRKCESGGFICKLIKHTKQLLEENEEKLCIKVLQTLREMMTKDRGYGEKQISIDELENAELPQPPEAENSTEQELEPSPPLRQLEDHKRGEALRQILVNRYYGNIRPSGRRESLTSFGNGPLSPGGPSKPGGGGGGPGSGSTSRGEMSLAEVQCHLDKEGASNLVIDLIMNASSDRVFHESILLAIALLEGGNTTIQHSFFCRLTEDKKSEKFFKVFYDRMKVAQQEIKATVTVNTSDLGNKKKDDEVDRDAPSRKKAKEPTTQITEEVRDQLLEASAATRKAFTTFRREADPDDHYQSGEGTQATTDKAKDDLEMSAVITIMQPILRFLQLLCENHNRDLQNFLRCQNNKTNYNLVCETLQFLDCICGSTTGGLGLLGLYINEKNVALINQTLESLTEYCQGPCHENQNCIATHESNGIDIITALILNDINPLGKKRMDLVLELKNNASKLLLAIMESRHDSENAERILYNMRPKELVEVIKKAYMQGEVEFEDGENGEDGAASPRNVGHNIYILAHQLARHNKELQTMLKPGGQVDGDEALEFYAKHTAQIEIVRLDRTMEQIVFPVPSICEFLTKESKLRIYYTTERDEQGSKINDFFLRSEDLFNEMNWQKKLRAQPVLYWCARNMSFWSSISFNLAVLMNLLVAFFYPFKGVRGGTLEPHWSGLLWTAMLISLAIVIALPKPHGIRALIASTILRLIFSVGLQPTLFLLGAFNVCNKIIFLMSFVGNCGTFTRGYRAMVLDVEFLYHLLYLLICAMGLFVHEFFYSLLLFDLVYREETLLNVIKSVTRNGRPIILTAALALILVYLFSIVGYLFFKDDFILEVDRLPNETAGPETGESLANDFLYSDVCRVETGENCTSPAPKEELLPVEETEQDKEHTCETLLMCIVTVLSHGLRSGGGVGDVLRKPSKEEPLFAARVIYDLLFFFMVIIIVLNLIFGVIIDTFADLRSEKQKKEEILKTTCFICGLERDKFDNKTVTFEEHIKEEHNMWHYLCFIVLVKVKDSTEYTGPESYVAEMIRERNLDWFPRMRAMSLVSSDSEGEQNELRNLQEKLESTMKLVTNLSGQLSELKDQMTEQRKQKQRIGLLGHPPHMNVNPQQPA
Method: Glycosides of the present invention, depending on their chemical structure, inhibit the binding of inositol-1,4,5-trisphosphate (IP3) to its receptor in microsomal membrane preparations. As IP3 is a messenger molecule playing distinguished role in the activation of different cells, interfering with this function can explain the anti-asthmatic effect of these polysulfated glycosides.
The IP3 antagonist effect of the polysulfated glycosides were determined using rat cerebellum membrane preparations according to Worley et al. (JBC 262, 12132, 1987).

[3] = system: BN rats; test: Effect on the extent of perivascular oedema developed in asthmatic lung tissue; assay type: in vivo, Brown Norway (BN) rats; conditions: Control 55 ± 6, Challenge 209 ± 12
Method: Sensitized BN rats were treated intratracheally with varying (0.01-1.0 mg/kg) dose of compound described in example 4, two hours before antigenic challenge, using a similar protocol described in Model 1. Lungs were collected […] and were fixed in 8% phosphate buffered formaldehyde. Samples were then processed for histochemistry routinely. 5 μm thick sections were stained with periodic-acid-Schiff (PAS) reagents and were counterstained with haematoxylineosine. On the 5 μm sections, the area of the connective tissue around the vasculare was determined and expressed as a ratio of the area of the corresponding blood vessel itself.

[4] = system: BN-rats; test: Effect of locally (intratracheally) administered polysulfated glycosides on airways' hyperresponsiveness ex vivo (tracheal contraction to acetylcholine after antigen challenge); assay type: in vivo, Brown Norway (BN) rats; conditions: Control 100 ± 0, Placebo 334 ± 68
Method: Brown Norway (BN) rats were actively sensitized to ovalbumin (OA) by a subcutaneous injection of 0.5 ml of OA/A1(OH)3 gel mixture (2 mg OA+10 g A1(OH)3/100 ml saline) on day 1 with subsequent subcutaneous injections (10 mg OA+10 g A1(OH)3/100 ml saline) given on days 14 and 21. On day 28, animals received the compound described in example 4 intratracheally (0.01; 0.1 or 1.0 mg/kg dose) 2 hours before antigen challenge. Antigen challenge was performed by inhalation of nebulised ovalbumin (1% antigen solution administered in a TSE inhalation system for 1 hour). Animals were sacrificed 48 hours post antigen challenge wherein the tracheas were removed to an organ bath. Dissected tracheas were allowed to equilibrate for 30 minutes before measuring tracheal spasmogenic response curves to acetylcholine (Ach).
As shown in Table 1 ovalbumin challenge of sensitized animals in this model caused a significant tracheal hyper-reactivity to acetylcholine, when the response to the spasmogenic agent was determined 48 h after antigen challenge.

[5] = 0.01 mg/kg intratracheally two hours before antigenic challenge
[6] = 0.1 mg/kg intratracheally two hours before antigenic challenge

Row | IC50 ([2]; read-out: Average IC50) | IC50 ([2]; read-out: IC 50 (μg/ml) Average ± SEM (n) (converted)) | melting point | Structure (SMILES) | number of PAS(+) cells as percent of total number of cells (average ± SEM) [1, 5] | number of PAS(+) cells as percent of total number of cells (average ± SEM) [1, 6] | Oedema: area of oedema relative to area of vasculature (average ± SEM) [3, 5] | Oedema: area of oedema relative to area of vasculature (average ± SEM) [3, 6] | MAX: Contraction at maximal Ach concentration relative to control (mean ± SEM) ([4]; 0.01 mg/kg intratracheally 2 hours before ovalbumin challenge) | MAX: Contraction at maximal Ach concentration relative to control (mean ± SEM) ([4]; 1.0 mg/kg intratracheally 2 hours before ovalbumin challenge)
1 | 163 nM | 216 nM |  | O=S(=O)(O)OC[C@H](OS(=O)(=O)O)[C@@H](O[C@@H]1O[C@H](COS(=O)(=O)O)[C@@H](OS(=O)(=O)O)[C@H](OS(=O)(=O)O)[C@H]1OS(=O)(=O)O)[C@H](OS(=O)(=O)O)[C@@H](COS(=O)(=O)O)OS(=O)(=O)O [Example 4, 1,2,4,5,6-penta-O-sulfato-3-O-(2,3,4,6-tetra-β-sulfato-β-D-glucopyranosyl)-D-glucitol nona potassium salt] | 15.0 ± 2.7% | 6.3 ± 1.5% | 113 ± 7 | 106 ± 8 | 134 ± 26 | 116 ± 37
2 |  |  | > 220 °C | O=S(=O)(O)OC[C@H](OS(=O)(=O)O)[C@@H](OS(=O)(=O)O)[C@H](O[C@@H]1O[C@H](COS(=O)(=O)O)[C@H](OS(=O)(=O)O)[C@H](OS(=O)(=O)O)[C@H]1OS(=O)(=O)O)[C@@H](COS(=O)(=O)O)OS(=O)(=O)O (as salt: potassium) [Example 7, 1,2,3,5,6-penta-O-sulfato-4-O-(2,3,4,6-tetra-O-sulfato-β-D-galactopyranosyl)-D-glucitol nona potassium salt] |  |  |  |  |  | 
